Source: patent US20240368084A1, “STING MODULATORS, COMPOSITIONS, AND METHODS OF USE” (University of South Florida, priority 2021, published 2024)

Target: His-labeled STING (Homo sapiens, UniProt Q86WV6)
Assay: Microscale thermophoresis (MST) binding assay
Settings: for Confidence: confidence class by MST shift units; for Dissociation Constant: MST, incubating with 50 nM 2,3-cGAMP
Experimental: Nanotemper Monolith NT.115 labeled thermophoresis machine was used with standard treated capillary tubes using samples comprised of labeled protein and titrations of small molecule in 1×PBS. […] Detection of the protein was performed using the blue detection channel with LED excitation power set to 90% and MST set to high allowing 3 s prior to MST on to check for initial fluorescence differences, 25 s for thermophoresis, and 3 s for regeneration after MST off.
Detection of the protein was performed using the blue detection channel with LED excitation power set to 90% and MST set to high allowing 3 s prior to MST on to check for initial fluorescence differences, 25 s for thermophoresis, and 3 s for regeneration after MST off. Analysis was performed using M.O. Affinity Analysis Software with difference between initial fluorescence measured in the first 5 s as compared with thermophoresis at 15 s at 15 different analyte concentrations ranging from 100 zM to 100 μM and exported into Graphpad Prism v.8 using a Log inhibitor v. response 4 parameter fit.
Confidence is categorized as follows: 1=low confidence (<2 MST shift unit−non-statistical); 2=mid confidence (2-3 MST shift units−intermediate); 3=high confidence ([…]−statistical). Dissociation constants are categorized as follows: A<1 μM; 1 μM≤B<100 μM; […]; 10 μM≤D<100 μM.
Reference compounds were assayed using the same protocol.

Sequence of His-labeled STING (Q86WV6 whole entry H232R): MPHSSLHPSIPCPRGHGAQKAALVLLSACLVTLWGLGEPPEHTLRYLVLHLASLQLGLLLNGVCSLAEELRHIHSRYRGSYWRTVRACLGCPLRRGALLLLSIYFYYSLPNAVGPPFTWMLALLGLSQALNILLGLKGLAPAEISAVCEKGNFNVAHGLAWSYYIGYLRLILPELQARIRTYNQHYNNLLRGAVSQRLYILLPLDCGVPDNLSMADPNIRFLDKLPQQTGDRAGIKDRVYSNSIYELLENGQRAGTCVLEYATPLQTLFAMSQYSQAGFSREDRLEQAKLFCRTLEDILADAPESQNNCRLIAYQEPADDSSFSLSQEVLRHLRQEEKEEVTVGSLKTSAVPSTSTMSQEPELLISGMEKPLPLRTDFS

CCCCC(=O)c1cccnc1Nc1cccc(Cl)c1C [Compound 21]
Confidence: 2 (2=mid confidence (2-3 MST shift units−intermediate))

CCCNC(=O)c1cccnc1Nc1cccc(Cl)c1C [Compound 16]
Confidence: 2 (2=mid confidence (2-3 MST shift units−intermediate))

Cc1cccc(Nc2ccccc2C(=O)OCC(O)CO)c1C (stereo not drawn) [Compound 46]
Dissociation Constant: No Binding | Confidence: 1 (1=low confidence (<2 MST shift unit−non-statistical))

CCOC(=O)c1cccnc1Nc1cccc(Cl)c1C [Compound 10]
Dissociation Constant: Low R^2 | Confidence: 1 (1=low confidence (<2 MST shift unit−non-statistical))

Cc1c(Cl)cccc1Nc1ncccc1C(=O)OCCCCCOC(=O)c1cccnc1Nc1cccc(Cl)c1C [Compound 50]
Confidence: 3 (3=high confidence (>2 MST shift units−statistical))

CCCOC(=O)c1cccnc1Nc1cccc(Cl)c1C [Compound 11]
Confidence: 1 (1=low confidence (<2 MST shift unit−non-statistical))

Cc1c(Cl)cccc1Nc1ncccc1C(=O)OCCCCOC(=O)c1cccnc1Nc1cccc(Cl)c1C [Compound 49]
Confidence: 1 (1=low confidence (<2 MST shift unit−non-statistical))

Cc1c(Cl)cccc1Nc1ccccc1C(=O)O [Compound 36, Tolfenamic acid, reference compound]
Dissociation Constant: No Binding | Confidence: 1 (1=low confidence (<2 MST shift unit−non-statistical))

COC(=O)c1cccnc1Nc1cccc(Cl)c1C [Compound 9]
Confidence: 3 (3=high confidence (>2 MST shift units−statistical))

Cc1cccc(Nc2ncccc2C(=O)O)c1C [Compound 47]
Dissociation Constant: No Binding | Confidence: 1 (1=low confidence (<2 MST shift unit−non-statistical))

C=CCNC(=O)c1cccnc1Nc1cccc(Cl)c1C [Compound 17]
Confidence: 1 (1=low confidence (<2 MST shift unit−non-statistical))

Cc1c(Br)cccc1Nc1ncccc1C(=O)O [Compound 23]
Confidence: 3 (3=high confidence (>2 MST shift units−statistical))

NC(=O)NC1NC(=O)NC1=O (stereo not drawn) [Compound 52]
Confidence: 3 (3=high confidence (>2 MST shift units−statistical))

CCNC(=O)c1cccnc1Nc1cccc(Cl)c1C [Compound 15]
Confidence: 1 (1=low confidence (<2 MST shift unit−non-statistical))

Cc1cccc(Nc2ccccc2C(=O)O)c1C [Compound 45]
Dissociation Constant: No Binding | Confidence: 1 (1=low confidence (<2 MST shift unit−non-statistical))

C#CCOC(=O)c1cccnc1Nc1cccc(Cl)c1C [Compound 13]
Confidence: 2 (2=mid confidence (2-3 MST shift units−intermediate))

Cc1cccc(Nc2ncccc2C(=O)OCC(O)CO)c1C (stereo not drawn) [Compound 48]
Dissociation Constant: No Binding | Confidence: 1 (1=low confidence (<2 MST shift unit−non-statistical))

COC(=O)c1cccnc1Nc1cccc(F)c1C [Compound 44]
Confidence: 1 (1=low confidence (<2 MST shift unit−non-statistical))

Cc1c(Cl)cccc1Nc1ncccc1COCC(O)CO (stereo not drawn) [Compound 1]
Confidence: 1 (1=low confidence (<2 MST shift unit−non-statistical))

Cc1c(Cl)cccc1Nc1ncccc1C(=O)OCCCOC(=O)c1cccnc1Nc1cccc(Cl)c1C [Compound 41]
Confidence: 1 (1=low confidence (<2 MST shift unit−non-statistical))

COC(=O)c1cccnc1Nc1cccc(Br)c1C [Compound 24]
Confidence: 1 (1=low confidence (<2 MST shift unit−non-statistical))

Cc1c(Nc2ncccc2C(=O)O)cccc1C(F)(F)F [Compound 27]
Confidence: 3 (3=high confidence (>2 MST shift units−statistical))

Cc1c(Cl)cccc1Nc1ncccc1CO [Compound 4]
Confidence: 2 (2=mid confidence (2-3 MST shift units−intermediate))

CNC(=O)c1cccnc1Nc1cccc(Cl)c1C [Compound 14]
Confidence: 2 (2=mid confidence (2-3 MST shift units−intermediate))

Cc1c(Br)cccc1Nc1ncccc1C(=O)OCC(O)CO (stereo not drawn) [Compound 42]
Confidence: 2 (2=mid confidence (2-3 MST shift units−intermediate))

Cc1c(F)cccc1Nc1ncccc1C(=O)OCC(O)CO (stereo not drawn) [Compound 43]
Confidence: 1 (1=low confidence (<2 MST shift unit−non-statistical))

Cc1c(Cl)cccc1Nc1ncccc1C(=O)OCC(O)CO (stereo not drawn) [Compound 19]
Confidence: 1 (1=low confidence (<2 MST shift unit−non-statistical))
